The test system of assay [1] is phenyl-para-quinone writhing. Put plainly: phenyl-para-quinone writhing assay in mice (analgesia). The class given is in vivo. To be noted: s.c. An excerpt: The compounds of the present invention are useful as analgesic agents. […] Exptl. Biol. Med., 95,729 (1957)].
(In writhing tests, fewer writhes than in controls are read as antinociception.)

For assay [2], the system named is ear edema induced by topical application of TPA (phorbol 12-myristate acetate). Put plainly: TPA-Induced Ear Edema (TPAEE). To be noted: mice. The class given is in vivo, Female Swiss Webster mice. As to the method: The purpose of this assay was to determine the ability of a topically-applied compound to prevent ear edema induced by topical application of TPA (phorbol 12-myristate acetate). Female Swiss Webster mice topically received TPA (10 μg/ear) on the right ear and vehicle on the left ear. The test compound (10 μg/ear) was applied to both ears. After five hours, the animals were sacrificed and an ear punch (4 mm) was taken from each ear. The difference in right and left ear punch weights for each animal was determined to assess activity. […] See Young, J. M. et al., J. Invest. Dermatol., 80 (1983), pp. 48-52.

Counter-ions that a name gives are not always drawn.

Consider `CC(C)(C)C(=O)Nc1ccncc1C(=NN)c1ccccc1F` [[4-(2,2-Dimethylpropionamido)-3-pyridinyl]-2-fluorophenylmethanonehydrazonemaleate], for which the “% Inhibition of Writhing” value in assay [1] (20 mg/kg of body wt.) worked out at 60%.
For the molecule `NN=C(c1cnccc1N)c1ccccc1F` [(4-Amino-3-pyridinyl)-2-fluorophenylmethanone hydrazone dihydrochloride], in assay [1] (20 mg/kg of body wt.), the “% Inhibition of Writhing” value stood at 74%.
Consider `CC(C)(C)C(=O)Nc1ccncc1-c1n[nH]c2ccccc12` [N-[3-(1H-Indazol-3-yl)-4-pyridinyl]-2,2-dimethylpropanamide], for which the “TPAEE (difference in right and left ear punch weights)” value in assay [2] (10 μg/ear, both ears, five hours, TPA 10 μg/ear on right ear) was -31%.
As for `CCC(=O)O[C@](Cc1ccccc1)(c1ccccc1)[C@H](C)CN(C)C` [Propoxyphene, reference compound], the “% Inhibition of Writhing” value in assay [1] (3.9 mg/kg of body wt., standard) came to 50%.
Take `C[C@]12CCC(=O)C=C1CC[C@@H]1[C@@H]2[C@@H](O)C[C@@]2(C)[C@H]1CC[C@]2(O)C(=O)CO` [hydrocortisone, reference compound]: the ED50 in assay [2] (standard, TPA-induced ear edema) is recorded as 47 μg/ear.

The values are drawn from patent US5166163A, “3-(1H-indazol-3-yl)-4-pyridinamines” (Hoechst-Roussel Pharmaceuticals Incorporated, priority 1991, dated 1992).
